Laboratory results: publication PMC8067766 (International Journal of Molecular Sciences, 2021)
Blank lines part the entries; values can stand above or below the molecule they belong to. Where a SMILES comes first, the peptide text is derived from it.

Experiments:
[1] = Thioflavin T fluorescence assay; assay type: physicochemical; settings: 1.0 mg/mL in PBS pH 7.4, 37 °C, orbital shaking; ThT excitation 420 nm, emission 482 nm
Experimental: (§1) All peptides were dissolved in Eppendorf Low Retention Tubes in 1.0 mL of PBS pH 7.4. The concentration of the solutions of peptides was 1.0 mg/mL. The peptides were incubated at 37 °C with constant orbital shaking. Aliquots for the evaluation of the fibrillization process were taken before incubation and after 1, 2, 3, 6, 14, and 21 days or only after 7 days, depending on the experiments.
Ten microliters of peptide solution incubated under fibrillization conditions (see Fibril preparation) were mixed with 10 µL of 1.5 mM ThT in water and 90 µL of PBS pH 7.4. The fluorescence was measured on a Tecan Infinite 200Pro (Tecan Group Ltd., Männedorf, Switzerland) spectrofluorometer in 96-well plates (Costar Black®), with excitation wavelength set at 420 nm and emission in the range of 455 to 600 nm.

HaCaT keratinocytes = test: XTT proliferation assay, keratinocytes; assay type: cell-based, human; settings: for inhibition of proliferation (XTT), in words: up to 25 µg/mL
Experimental: (§2) Immortalized human HaCaT [69, 70] keratinocytes (DKFZ, Heidelberg, Germany) and the human dermal fibroblast cell line 46BR.1N (ECACC, Sigma Aldrich, St. Louis, MO, USA) were used in the study. Cells were routinely grown in culture flasks (growth surface area 25 cm^2) in Dulbecco’s modified Eagle medium (DMEM, Sigma Aldrich, St. Louis, MO, USA), with 4500 mg/L of glucose, 584 mg/L of L-glutamine, sodium pyruvate, and sodium bicarbonate, supplemented with 10% FBS and 100 units/mL of penicillin and 100 μg/mL of streptomycin (Sigma Aldrich, St. Louis, MO, USA), under a humidified atmosphere with 5% CO2 at 37 °C. Medium was changed every 2–3 days.
(§3) Lactate dehydrogenase (LDH) activity in cell culture supernatants (Takara, Japan, cat. No. MK401) was measured to determine the cytotoxicity of the tested compounds, and the XTT assay was used to evaluate their effect on cell proliferation. Both tests were performed as previously described according to manufacturers’ instructions. Briefly, cells were seeded into 96-well plates, at a density of 5000 cells per well, in DMEM supplemented with 10% FBS. After 24 h the medium was exchanged for serum-free DMEM containing appropriate concentrations of the tested compounds. Supernatants for LDH analysis were collected after 48 h of incubation. The XTT assay was performed after 48 and 72 h of incubation.
(§4) For the analysis of the effect of the peptide fibrils on skin cells, the experiment was performed as described, but the cells were stimulated with 10 µL of the fibrils (50 µg/mL) and incubated for 48 h, when the LDH and XTT assay were then performed.

[2] = biological target: T1, human neutrophil elastase (Homo sapiens, UniProt P08246); test: Incubation with neutrophil elastase (release of active sequence); assay type: in vitro ADME; settings: non-fibrillated peptide 1.0 mM, 0.1 M Tris HCl, 500 mM NaCl, 0.05% Triton X-100, 20 mM CaCl2, pH 7.5; enzyme 150 nM; 30 min, 37 °C; RP-UHPLC (PDA) and LC-MS
T1 construct: purchased Sigma Aldrich
T1 sequence (P08246 30-267): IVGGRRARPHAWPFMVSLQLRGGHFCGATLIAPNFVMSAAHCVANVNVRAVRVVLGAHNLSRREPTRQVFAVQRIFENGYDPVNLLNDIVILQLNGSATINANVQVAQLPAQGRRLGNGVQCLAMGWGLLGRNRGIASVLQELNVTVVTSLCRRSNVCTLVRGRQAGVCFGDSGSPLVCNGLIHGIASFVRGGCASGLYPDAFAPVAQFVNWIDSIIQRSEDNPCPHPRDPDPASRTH
Experimental: An enzymatic stability study was performed using the human neutrophil elastase enzyme (Sigma Aldrich, St. Louis, MO, USA). The peptides were dissolved in a buffer (with composition: 0.1 M Tris HCl, 500 mM NaCl, 0.05% Triton X-100, 20 mM CaCl2, pH 7.5), to a final concentration 1.0 mM. The fibrils formed in the aggregation process were dissolved in PBS at pH 7.4 to a concentration of 1 mg/mL. The enzyme was added to the peptide/fibril solution to a concentration of 150 nM and incubated for 30 min (peptides) or 60 min (fibrils), at 37 °C, with agitation. A 10% aqueous TFA solution was added to the reaction mixture to stop the digestion. The progress of the reaction was monitored by RP-UHPLC with a PDA (Photo Diode Array) detector on a Kinetex C8 column (2.6 μm, 100 Å 2.6 × 100 mm, Phenomenex, Torrance, CA, USA), at a gradient of 0–50% B for 15 min, and by LC-MS.

[3] = Circular dichroism over incubation; assay type: physicochemical; settings: 1.0 mg/mL in PBS pH 7.4, 37 °C with agitation, up to 14 days; centrifuged clear solution, far-UV 195-250 nm
Experimental: Circular dichroism spectra were recorded on a Jasco J-815 spectropolarimeter (Jasco, Victoria, BC, Canada). Far-UV spectra (195–250 nm) were registered for all peptides dissolved in PBS pH 7.4 at a concentration of 1.0 mg/mL and incubated at 37 °C with agitation. Spectra were recorded before and after 1,2, 3, 7, 10 and 14 days of incubation. All spectra were corrected for the buffer signal. The CD spectra were recorded three times, using a 0.2 mm cell.

[4] = Peptide stability in human plasma (TCA assay); assay type: in vitro ADME; settings: human plasma (EDTA), 37 °C, 300 rpm, TCA 3% precipitation, RP-HPLC UV 223 nm, at least triplicates
Experimental: Peptide stability tests were performed according to a TCA stability assay based on the method used by Nguyen et al.. Peptides were dissolved in water, mixed with human plasma* to a final concentration of 1.0 mg/mL, and incubated at 37 °C with agitation (300 rpm, Thermomixer, Eppendorf AG, Hamburg, Germany). After 0, 1, 2, 3, 6 and 24 h, 80 μL of the solution was taken and mixed with 15% TCA to obtain a final concentration of 3% (v/v). The samples were incubated in ice for 10 min and centrifuged for 10 min (12,000 rpm, Microfuge 16, Beckman Coulter, Brea, CA, USA). Supernatants were analyzed by RP-HPLC on column using a linear gradient of acetonitrile (5–100% over 15 min) with detection at 223 nm. Peptides were quantified by their peak areas relative to the initial peak areas (0 min). All stability tests were performed at least in triplicates. As control samples peptides dissolved only in water under the same conditions were used. To additionally assess the changes in the incubated samples (peptide degradation) mass spectrometry analysis was used. LC-MS experiments were performed using ESI-IT-TOF (Shimadzu, Kyoto, Japan).
* Blood was collected from healthy anonymous donors and EDTA was then used as an anticoagulant. The procedure was approved by the Independent Bioethics Commission for Research of the Medical University of Gdańsk (NKBBN/387/2014).

46BR.1N fibroblasts [5] = test: XTT proliferation assay, fibroblasts; assay type: cell-based, human; settings: for inhibition of proliferation (XTT), in words: up to 25 µg/mL
Experimental: as §2, §3, §4

[6] = Transmission electron microscopy of fibrils; assay type: physicochemical; settings: 1.0 mg/mL in PBS pH 7.4, TEM, uranyl acetate stain
Experimental: as §1
Peptide samples (5 µL) were applied on a glow-discharged carbon-coated copper grid (400 mesh). After 1 min of adsorption, excess liquid was removed using filter paper, and the samples were stained with 2% (v/v) aqueous uranyl acetate. The samples were examined with a TECNAI SPIRIT BIO TWIN FEI (FEI Company, Hillsboro, OR, USA) at 120 kV, with nominal magnifications between 11,500 and 39,000. The assay was performed for samples before (after dissolution) and after 3 days of incubation.

46BR.1N fibroblasts [7] = test: LDH cytotoxicity assay, fibroblasts; assay type: cell-based, human; settings: non-fibrillated peptide 25 µg/mL, 48 h, serum-free DMEM; n = 16
Experimental: as §2
Lactate dehydrogenase (LDH) activity in cell culture supernatants (Takara, Japan, cat. No. MK401) was measured to determine the cytotoxicity of the tested compounds, and the XTT assay was used to evaluate their effect on cell proliferation. Both tests were performed as previously described according to manufacturers’ instructions. Briefly, cells were seeded into 96-well plates, at a density of 5000 cells per well, in DMEM supplemented with 10% FBS. After 24 h the medium was exchanged for serum-free DMEM containing appropriate concentrations of the tested compounds. Supernatants for LDH analysis were collected after 48 h of incubation. The XTT assay was performed after 48 and 72 h of incubation. […]

[8] = test system: human neutrophil elastase (Sigma Aldrich), 150 nM; test: human neutrophil elastase in buffer (0.1 M Tris HCl, 500 mM NaCl, 0.05% Triton X-100, 20 mM CaCl2, pH 7.5); non-fibrillated peptides; settings: 37 °C, up to 30 min
human plasma = settings: 37 °C, up to 24 h
[9] = non-fibrillated peptide, 48 and 72 h, serum-free DMEM, n = 16
[10] = non-fibrillated peptide, 48 and 72 h

Molecule: CC[C@H](C)[C@H](NC(=O)CNC(=O)[C@H](C)NC(=O)[C@@H](N)CCC(N)=O)C(=O)N[C@H](C(=O)N[C@H](C(N)=O)C(C)C)C(C)C [FC] (H-QAGIVV-NH2)
inhibition of proliferation (XTT), in words (HaCaT keratinocytes; [10]): Inhibition of the proliferation of both cell lines was not observed
remaining at 24 h, 1 mg/mL ([4]; rapid precipitation of peptide noted, read-out: peptide remained in solution in human plasma): 11%
inhibition of proliferation (XTT), in words (46BR.1N fibroblasts [5]; [10]): Inhibition of the proliferation of both cell lines was not observed
cytotoxicity (LDH release) (46BR.1N fibroblasts [7]): about 5%

Molecule: Ac-GHK-GGG-AAPV-GGG-QAGIVV-NH2
cleaved bond [8]: V-G, major, 30 min

Molecule: Ac-K GHK-GGG-AAPV-GGG-QAGIVV-NH2
cleaved bond [8]: V-G, major, 30 min

The next lines start with results.

Degradation Yes/No by human neutrophil elastase [2]: Yes
secondary structure by CD [3]: disordered structure
metabolised at 24 h, 1 mg/mL ([4]; peak area relative to 0 min, read-out: peptide loss in human plasma relative to the initial concentration): 7%
fibril thickness (TEM) [6]: 10–12 nm
Molecule: CC[C@H](C)[C@H](NC(=O)CNC(=O)[C@H](C)NC(=O)[C@H](CCC(N)=O)NC(=O)CNC(=O)CNC(=O)CNC(=O)[C@@H](NC(=O)[C@@H]1CCCN1C(=O)[C@H](C)NC(=O)[C@H](C)NC(=O)CNC(=O)CNC(=O)CNC(=O)[C@H](CCCNC(=N)N)NC(=O)[C@H](Cc1ccc(O)cc1)NC(=O)[C@@H](NC(=O)[C@H](CCCCN)NC(=O)[C@H](CC(=O)O)NC(=O)[C@H](CCCNC(=N)N)NC(C)=O)C(C)C)C(C)C)C(=O)N[C@H](C(=O)N[C@H](C(N)=O)C(C)C)C(C)C [FC-IM] (Ac-RDKVYRGGGAAPVGGGQAGIVV-NH2)
time course of ThT fluorescence increase (fibrillization) [1]: required at least three days of incubation
increase in proliferation by fibrils compared to control (XTT) (HaCaT keratinocytes; fibrillated form, 10 µL of fibrils (50 µg/mL), 48 h, not statistically significant): did not stimulate proliferation of either tested cell line
increase in proliferation compared to the control (XTT) (HaCaT keratinocytes; [9]): 20–30%
inhibition of proliferation (XTT), in words (HaCaT keratinocytes; [10]): did not decrease the proliferation of HaCaT keratinocytes
increase in proliferation by fibrils compared to control (XTT) (46BR.1N fibroblasts [5]; fibrillated form, 10 µL of fibrils (50 µg/mL), 48 h, three independent experiments): did not stimulate proliferation of either tested cell line
increase in proliferation compared to the control (XTT) (46BR.1N fibroblasts [5]; [9]): 20–30%
inhibition of proliferation (XTT), in words (46BR.1N fibroblasts [5]; [10]): Slight inhibition of the proliferation of fibroblasts was seen at a concentration of 25 µg/mL after 72 h incubation

cleaved bond [8]: V-G, major, 30 min
fragment found [8]: Ac-RDKVYRGGGAAPVG-COOH
not cleaved (human plasma): 7% peptide loss after 24 h
Molecule: Ac-RDKVYR GGG-AAPV-GGG-QAGIVV-NH2
